In patent publication US20250262247A1, “MICROGLIAL CELLS AS THERAPEUTIC TARGETS IN NEURODEVELOPMENTAL DISORDERS” (The Regents of the University of California, priority 2022, published 2025):

System: MGL
Assay: Phagocytosis assay with block of zymosan uptake
Format: cell-based, human
Conditions: 1 μM, 30 min prior to incubation with zymosan
Experimental: Phagocytosis Assay. Phagocytosis assay was performed according to the manufacturer's instructions with pHrodo™ Red Zymosan A BioParticles® (Life Technologies, Carlsbad, USA) conjugate for phagocytosis. Briefly, 20,000 MGL were plated on a 96-well tissue culture plate and incubated in M2 media [Neurobasal media supplemented with 2×Gem21 NeuroPlex, 1×NEAA, 1× Glutamax] containing fluorescently labeled zymosan particles (0.125 mg/ml) for 2 h at 37° C., 5% CO2. Fluorescence was measured with Tecan Infinite 200 PRO microplate reader (Life Sciences, Switzerland).
For experiments featuring block of zymosan uptake, cell monolayers were treated with 1 μM Cytochalasin D (Sigma-Aldrich) 30 min prior to incubation with zymosan.

## C=C1[C@@H](C)[C@H]2[C@H](Cc3ccccc3)NC(=O)[C@]23[C@H](OC(C)=O)/C=C/[C@@](C)(O)C(=O)[C@@H](C)C/C=C/[C@H]3[C@@H]1O [Cytochalasin D]
  Engulfment of zymosan particles: reduced
